Measurements from patent US20160074409A1, “Treatment of Skeletal-Related Disorders” (priority 2013, published 2016).

Tested on: MDA-MB-231 breast carcinoma cells
Experiment: Bone density in bone metastasis model (femoral and tibial X-ray densitometry)
Format: in vivo, Nude (rnu/rnu) female rats
Conditions: metastatic bone cancer model, MDA-MB-231 cells injected into tibia; Group G5: 90 mg/kg BID PO, N=6; 6 weeks; FIG. 1
Experimental: Nude (rnu/rnu) female rats were obtained from Charles River (Wilmington, Mass.). The rats were pair-housed in polycarbonate micro-isolator cages lined with autoclaved bedding. Autoclaved reverse osmosis (RO) water and autoclaved standard rat chow were provided ad libitum. Body weights were recorded weekly throughout the course of the studies. Animals were maintained for 6 weeks and euthanized by carbon dioxide inhalation at the end of the experiment. The animals were randomized to study groups by body weight as follows: G1: vehicle BID PO (N=6), G2: 0.04 mg/kg zoledronate QWK IV (N=6), G5: 90 mg/kg Compound of Formula IV BID PO (N=6), and G6: No implantation (N=3).
MDA-MB-231 breast carcinoma cells were propagated by standard tissue culture methods in RPMI media containing 10% fetal bovine serum. Exponentially growing cells were trypsinized and resuspended in phosphate-buffered saline at a concentration of 2.5×10^7 cells/mi. Rats were maintained under isoflurane anesthesia during the tumor injection procedure. […]
Radiographs were taken with rats under general anaesthesia. […] Radiographs were scanned and analysed. […]
Femoral and tibial X-ray densitometry was performed. In brief, bones were X-rayed, the film was scanned and the electronic image then analysed by a real-colour image analysis system. Pixel density was then determined and used as a measure of disease progression.

CC#CC(=O)N1CCCC1c1nc(-c2ccc(C(=O)Nc3ccccn3)cc2)c2c(N)ncnn12 (stereo not shown) [Compound of Formula IV]
bone density (femoral and tibial X-ray densitometry, pixel density): inhibition of the decrease in bone density
